# Experimental data published in patent US6649193B1, “Prophylactic therapeutic and industrial antioxidant compositions enhanced with stabilized atomic hydrogen/free electrons and methods to prepare and use such compositions” (Henceforth Hibernia Inc., priority 1999, dated 2003).
# Assay: Standardized in-vitro tests of free radical / reactive species scavenging
# Assay type: biochemical
# Details: cage-like agent added to the solution before electrolysis
# Text: Electrochemical Method to Produce and Encage Atomic Hydrogen: Electrolysis is a very efficient method of producing atomic hydrogen free electrons. In the past, though, it was not possible to separate oxidizing products produced at the anode and reducing products produced at the cathode. Recently, Japanese scientists used a semipermeable membrane to separate the cathode and anode areas, while not perturbing the flow of electrons delivered to the media. Such devices are, for instance, described in Y. Shiramizu et al., J. Electrochem. Soc., Vol. 143, 1632 (1996), the content of which is incorporated by reference in its entirety. In short, such devices consist of a chamber (usually made of noncorrosive material such as plastic) which is divided in two compartments with a water-tight semipermeable Nafion membrane (Dupont corporation). In each compartment, there is an electrode connected to a DC current source. […] Several parameters can be measured to ensure the efficiency of electrolysis. […] The efficiency of reduction of vitamin B12 can be tested by measuring UV/VISIBLE spectra and recording the absorbance at 387 nm, which is proportional to the amount of reduced vitamin B12, see G. Chithambarathanu Pillai and E. S. Gould, Inorganic Chemistry, Vol. 25, 3353 (1986), the content of which is incorporated by reference in its entirety. […]
substance,measurement,value
cyanocobalamin [vitamin B12],scavenging ability of the electrolyzed solution,enhanced in a dose-dependent fashion
